{"source": "the NIST ThermoML archive (doi:10.1021/acs.jced.8b01144)", "conditions": "Crystal; DSC", "note": "± gives the expanded uncertainty stated by the source.", "data": [{"smiles": "NC(=O)c1ccc(N)cc1", "note": "[4-aminobenzamide]", "values": [{"measurement": "Triple point temperature", "value": "453.4 ± 1.2", "unit": "K"}]}]}
